Test results taken from the supplement of paper PMC11962398.

How the values were obtained:
[1] = compound: T1, C[C@H]1CNCCN1c1nccc(-c2noc3c2CCC[C@@]32CCCc3sc(N)c(C#N)c32)n1 [BI-2493]; conditions: 5 days
Procedure: (§1)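 PRISM pooled barcoded cancer cell line viability screen (Broad Institute) with BI-2493 at 8 doses in threefold dilutions from 0.00457 to 10 µmol/L, 5-day treatment; curves fitted per cell line. IC50 is undefined (placeholder) for resistant lines. AUC is capped at 1, and sensitivity is reported as 1 − AUC.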

[2] = compound: T1, BI-2493; test: 1 - AUC of viability dose-response curve (sensitivity) (fraction); higher = more sensitive; conditions: 5 days
Procedure: as §1

Test System	IC50 of cell viability [1] [µM]	1 - AUC of viability dose-response curve [2]
K562_HAEMATOPOIETIC_AND_LYMPHOID_TISSUE	7.18	0.0609
KALS1_CENTRAL_NERVOUS_SYSTEM	9.22	0.0195
KARPAS620_HAEMATOPOIETIC_AND_LYMPHOID_TISSUE	0.866	0.326
KARPAS1718_HAEMATOPOIETIC_AND_LYMPHOID_TISSUE	4.87	0.0894
KATOIII_STOMACH	4.3	0.183
KCL22_HAEMATOPOIETIC_AND_LYMPHOID_TISSUE	6.3	0.193
KD_SOFT_TISSUE	3.6	0.114
KE37_HAEMATOPOIETIC_AND_LYMPHOID_TISSUE	6.5	0.0832
KE39_STOMACH	1.55	0.351
KE97_STOMACH	> 10	0.00627
KELLY_AUTONOMIC_GANGLIA	4.09	0.101
KHM1B_HAEMATOPOIETIC_AND_LYMPHOID_TISSUE	3.77	0.106
KKU055_BILIARY_TRACT	8.47	0.156
KKU100_BILIARY_TRACT	2.61	0.182
KKU213_BILIARY_TRACT	4.97	0.12
KLE_ENDOMETRIUM	4.68	0.0854
KMCH1_BILIARY_TRACT	9.41	0.013
KMH2_HAEMATOPOIETIC_AND_LYMPHOID_TISSUE	9.96	0.00616

Test System	IC50 of cell viability [1] [µM]	1 - AUC of viability dose-response curve [2]
KMRC1_KIDNEY	8.1	0.0333
KMRC3_KIDNEY	7	0.0597
KMRC20_KIDNEY	4.73	0.185
KMS11_HAEMATOPOIETIC_AND_LYMPHOID_TISSUE	3.13	0.272
KMS12BM_HAEMATOPOIETIC_AND_LYMPHOID_TISSUE	3.71	0.108
KMS18_HAEMATOPOIETIC_AND_LYMPHOID_TISSUE	5.38	0.13
KMS21BM_HAEMATOPOIETIC_AND_LYMPHOID_TISSUE	9.51	0.0119
KMS27_HAEMATOPOIETIC_AND_LYMPHOID_TISSUE	9	0.028
KMS28BM_HAEMATOPOIETIC_AND_LYMPHOID_TISSUE	9.91	0.00817
KNS42_CENTRAL_NERVOUS_SYSTEM	6.04	0.0979
KNS60_CENTRAL_NERVOUS_SYSTEM	9.53	0.0228
KNS62_LUNG	1.79	0.271
KNS81_CENTRAL_NERVOUS_SYSTEM	6.64	0.0832
KON_UPPER_AERODIGESTIVE_TRACT	3.51	0.189
KOSC2CL343_UPPER_AERODIGESTIVE_TRACT	5.69	0.0719
KP3_PANCREAS	6.52	0.133
KP4_PANCREAS	4.92	0.189
KPNYN_AUTONOMIC_GANGLIA	> 10	0.144
